This is an account of results in ChEMBL document CHEMBL6103672, “Discovery of HMPL-306 (Ranosidenib), a New Potent and Selective Dual Inhibitor of Mutant IDH1 and 2 in Clinical Development for Cancer Treatment” (ACS Med Chem Lett, 2025).

A short description of data set [1]: Inhibition of IDH2 R140Q mutant in human U-87 MG cells incubated for 72 hrs by measuring 2-HG production by fluorescence based analysis. The class given is functional, cell-based, U-87MG ATCC. Particulars: Homo sapiens, U-87 MG, 72 h.
The nature of data set [2]: Inhibition of IDH1 R132H mutant in human U-87 MG cells incubated for 72 hrs by measuring 2-HG production by fluorescence based analysis. The class given is functional, cell-based, U-87MG ATCC. To be noted: Homo sapiens, U-87 MG, 72 h.
Data set [3] in a line: Apparent permeability across apical to basolateral side in human Caco-2 cells at 10 uM incubated for 1 hrs by LC-MS/MS analysis.
Data set [4] can be described thus: Apparent permeability across basolateral to apical side in human Caco-2 cells at 10 uM incubated for 1 hrs by LC-MS/MS analysis.
The nature of data set [5]: Metabolic stability in male SD rat liver microsomes assessed as parent compound remaining at 1 uM measured after 30 mins in presence of NADPH by LC-MS analysis. The class given is ADME, Microsome. To be noted: Sprague-Dawley, read-out: Stability. A general note: Microsomes from liver hold many membrane-bound enzymes, among them those of drug oxidation.
A short description of data set [6]: Metabolic stability in male ICR mouse liver microsomes assessed as parent compound remaining at 1 uM measured after 30 mins in presence of NADPH by LC-MS analysis. The class given is ADME, Microsome. To be noted: read-out: Stability.
Data set [7] is described as follows: Clearance in male ICR mouse at 2.5 mg/kg, iv measured after 8 hrs by LC/MS/MS analysis. The class given is ADME, organism-based. Particulars: in vivo.
Data set [8] is described as follows: Volume of distribution at steady state in male ICR mouse at 2.5 mg/kg, iv measured after 8 hrs by LC/MS/MS analysis. The class given is ADME, organism-based. Particulars: in vivo, read-out: Vdss.
Data set [9] can be described thus: Half life in male ICR mouse at 10 mg/kg, po measured after 8 hrs by LC/MS/MS analysis. The class given is ADME, organism-based. Particulars: in vivo.
A short description of data set [10]: Cmax in male ICR mouse at 10 mg/kg, po measured after 8 hrs by LC/MS/MS analysis. The class given is ADME, organism-based. To be noted: in vivo.
Data set [11] in a line: AUC(0 to t) in male ICR mouse at 10 mg/kg, po measured after 8 hrs by LC/MS/MS analysis. The class given is ADME, organism-based. To be noted: in vivo.
Data set [12] can be described thus: AUC(0 to infinity) in male ICR mouse at 10 mg/kg, po measured after 8 hrs by LC/MS/MS analysis. The class given is ADME, organism-based. To be noted: in vivo.
Data set [13] is described as follows: Oral bioavailability in male ICR mouse at 10 mg/kg measured after 8 hrs by LC/MS/MS analysis. The class given is ADME, organism-based. To be noted: in vivo.
The target of data set [14] is Isocitrate dehydrogenase [NADP], mitochondrial (Homo sapiens, UniProt P48735, R140Q). Briefly: Inhibition of IDH2 R140Q mutant (unknown origin) using alpha-ketoglutarate as substrate preincubated with compound for 16 hrs followed by substrate addition and measured after 1 hr in presence of NADPH by fluorescence based analysis.
Data set [15] in a line: AUC(0 to t) in male ICR mouse at 10 mg/kg, po measured upto 24 hrs by LC/MS/MS analysis. The class given is ADME, organism-based. Particulars: in vivo.
Data set [16] in a line: Inhibition of IDH2 R140Q mutant in human TF-1 cells incubated for 72 hrs by measuring 2-HG production by fluorescence based analysis. The class given is functional, cell-based. Particulars: TF-1, 72 h.
Data set [17] is described as follows: Inhibition of IDH2 R172K mutant in human HEK293 cells incubated for 72 hrs by measuring 2-HG production by fluorescence based analysis. To be noted: HEK293, 72 h. The class given is functional, cell-based.
Data set [18] is described as follows: In vivo inhibition of 2-HG in BALB/c nude mouse xenografted with human U-87 MG cells harboring IDH2 R140Q mutant at 25 mg/kg, po measured after 24 hrs post dose. The class given is functional. For orientation: A xenograft is tissue or cells of one species grown in another, often human tumour cells in immunodeficient mice.
Data set [19] can be described thus: In vivo inhibition of 2-HG in BALB/c nude mouse xenografted with human U-87 MG cells harboring IDH2 R140Q mutant at 25 mg/kg, po measured after 40 hrs post dose. The class given is functional.
Data set [20] concerns the target T1, Adenosine receptor A3 (Homo sapiens, UniProt P0DMS8).
T1 sequence (P0DMS8 whole entry): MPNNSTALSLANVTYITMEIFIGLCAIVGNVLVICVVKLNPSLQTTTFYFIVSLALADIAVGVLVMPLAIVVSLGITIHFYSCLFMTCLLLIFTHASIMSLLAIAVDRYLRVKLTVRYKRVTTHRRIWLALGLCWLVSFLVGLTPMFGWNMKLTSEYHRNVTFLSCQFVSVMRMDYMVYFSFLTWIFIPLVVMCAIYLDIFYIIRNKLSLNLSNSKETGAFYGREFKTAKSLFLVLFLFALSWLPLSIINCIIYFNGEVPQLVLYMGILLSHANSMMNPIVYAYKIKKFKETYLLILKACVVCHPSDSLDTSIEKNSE
Briefly: Inhibition of adenosine A3 receptor (unknown origin). The class given is toxicity.

Data set [21] deals with T2, UGT1A1 (Homo sapiens, UniProt P22309).
T2 sequence (P22309 whole entry): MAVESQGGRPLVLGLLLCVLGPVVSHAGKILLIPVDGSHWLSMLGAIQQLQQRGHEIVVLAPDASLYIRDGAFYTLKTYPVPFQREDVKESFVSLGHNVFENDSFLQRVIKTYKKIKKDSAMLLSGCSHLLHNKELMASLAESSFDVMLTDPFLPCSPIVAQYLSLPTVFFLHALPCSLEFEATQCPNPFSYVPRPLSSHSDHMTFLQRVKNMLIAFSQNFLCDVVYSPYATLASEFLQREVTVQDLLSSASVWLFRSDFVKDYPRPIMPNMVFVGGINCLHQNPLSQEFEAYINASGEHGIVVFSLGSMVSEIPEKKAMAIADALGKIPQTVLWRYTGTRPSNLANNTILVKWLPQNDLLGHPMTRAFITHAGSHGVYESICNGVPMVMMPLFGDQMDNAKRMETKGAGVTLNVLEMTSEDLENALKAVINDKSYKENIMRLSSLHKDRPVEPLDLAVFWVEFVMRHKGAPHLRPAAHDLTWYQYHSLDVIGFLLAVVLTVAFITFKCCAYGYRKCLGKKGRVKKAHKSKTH
Put plainly: Inhibition of UGT1A1 (unknown origin) at 10 uM relative to control. The class given is ADME.

The nature of data set [22]: Inhibition of IDH1 R132H mutant in human TF-1 cells incubated for 72 hrs by measuring 2-HG production by fluorescence based analysis. The class given is functional, cell-based. To be noted: TF-1, 72 h.
The nature of data set [23]: Inhibition of IDH1 R132C mutant in human HT-1080 cells incubated for 72 hrs by measuring 2-HG production by fluorescence based analysis. The class given is functional, cell-based. To be noted: HT-1080, 72 h.
Data set [24] is described as follows: In vivo inhibition of 2-HG in BALB/c nude mouse xenografted with human HT-1080 cells harboring IDH1 R132C mutant at 50 mg/kg, po measured after 24 hrs post dose. The class given is functional.
The nature of data set [25]: In vivo inhibition of 2-HG in BALB/c nude mouse xenografted with human HT-1080 cells harboring IDH1 R132C mutant at 50 mg/kg, po measured after 40 hrs post dose. The class given is functional.
Data set [26] can be described thus: Ratio of drug concentration in brain to plasma of BALB/c nude mouse xenografted with human U-87 MG cells harboring IDH2 R140Q mutant at 50 mg/kg measured after 16 hrs by LC/MS/MS analysis. The class given is ADME, organism-based. Particulars: read-out: BPR.
Data set [27] in a line: Ratio of drug concentration in brain to plasma of BALB/c nude mouse xenografted with human U-87 MG cells harboring IDH2 R140Q mutant at 50 mg/kg measured after 24 hrs by LC/MS/MS analysis. To be noted: read-out: BPR. The class given is ADME, organism-based.

Sequence of Isocitrate dehydrogenase [NADP], mitochondrial (P48735 40-452 R140Q limits assumed): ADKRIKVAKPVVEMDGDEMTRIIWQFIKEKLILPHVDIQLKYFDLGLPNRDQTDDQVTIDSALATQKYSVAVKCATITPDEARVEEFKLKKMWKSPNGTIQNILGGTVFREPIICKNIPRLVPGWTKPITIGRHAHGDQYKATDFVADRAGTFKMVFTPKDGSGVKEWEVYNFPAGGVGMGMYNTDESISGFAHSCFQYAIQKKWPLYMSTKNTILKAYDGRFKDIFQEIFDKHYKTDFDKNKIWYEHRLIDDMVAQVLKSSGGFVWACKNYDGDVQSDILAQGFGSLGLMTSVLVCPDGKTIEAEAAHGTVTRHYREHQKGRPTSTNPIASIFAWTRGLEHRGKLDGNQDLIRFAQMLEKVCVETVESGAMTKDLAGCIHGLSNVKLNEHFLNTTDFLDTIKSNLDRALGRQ

As usually defined, the IC50 is the concentration that inhibits the measured activity by half. In general, Papp A→B refers to the apparent permeability from the apical to the basolateral side of a cell layer. One may read the Papp B→A as the apparent permeability from the basolateral to the apical side of a cell layer. Broadly, the clearance is the rate of elimination divided by the concentration. A high value points to a high capacity for elimination. By half-life is commonly meant the time in which the quantity being followed falls by half. A higher half-life goes with slow decline. Broadly, the Cmax is the maximum level reached in the sampled fluid or tissue. The term AUC(0-t) denotes the area under the concentration-time curve up to a stated or last time point. Read a low AUC(0-t) as less exposure. As a reminder, the AUC(0-inf) is total exposure, with the tail of the curve extrapolated. For the molecule `C[C@@H](Nc1nc(N[C@H](C)C(F)(F)F)nc(C2=C(F)[C@@H](O)CCC2)n1)C(F)(F)F`, the 50% inhibitory concentration (IC50) in data set [1] turned out to be 42 nM; in [2], 100 nM. The Papp A→B at 1 h, 10 µM in [3] turned out to be 46.8 ×10⁻⁶ cm/s. The apparent permeability from basolateral to apical (Papp B→A) at 1 h, 10 µM in data set [4] is 25.9 ×10⁻⁶ cm/s. Moreover, the remaining at 0.5 h, 1 µM in data set [5] turned out to be 92.7%; in data set [6] it was 86.2%. Besides, the clearance in data set [7] was 14.1 mL/min/kg. Besides, in data set [8], the Vd was 1.16 L/kg. This molecule gave a half-life in [9] of 2 h. Also, in data set [10], the peak concentration (Cmax) is 4950 ng/mL. Besides, in [11], the AUC(0-t) at 8 h was found to be 14800 ng·h/mL. The molecule also gave an AUC(0-inf) in data set [12] of 15800 ng·h/mL. Moreover, in data set [13], the bioavailability came to 134%.
Usually inhibition stands for the share of the control response that was lost under treatment. Higher therefore signals a strong effect. With `CC(C)(O)CNc1nc(Nc2ccnc(C(F)(F)F)c2)nc(-c2cccc(C(F)(F)F)n2)n1` [ENASIDENIB], the concentration for half-maximal inhibition (IC50) in data set [14] turned out to be 37 nM; in [1], 43 nM; in [16], 55 nM; in data set [17], 5170 nM; in [20] it was 12 nM. This molecule also yielded a clearance in [7] of 6.9 mL/min/kg. In data set [8], the Vd turned out to be 1.72 L/kg. In data set [9], this molecule had a half-life of 3.3 h. Further, the peak level in [10] (Cmax) was 1870 ng/mL. In addition, the AUC(0-t) at 24 h in data set [15] came to 22900 ng·h/mL. The molecule further came in with an AUC(0-inf) in data set [12] of 23000 ng·h/mL. For the same molecule, the bioavailability in data set [13] amounted to 95.1%. The “inhibition (INH)” value stood at 87% in data set [18] and 37% in [19]. Moreover, in [21], the inhibition at 10 µM came to 76.1%.
For orientation: inhibition in vivo means the drop in the measured response relative to a control, in per cent. A higher inhibition in vivo goes with strong suppression. As to `N#Cc1ccnc(N2C(=O)CC[C@H]2C(=O)N(c2cncc(F)c2)[C@H](C(=O)NC2CC(F)(F)C2)c2ccccc2Cl)c1` [IVOSIDENIB], the half-maximal inhibitory concentration (IC50) is 32 nM in data set [2], 68 nM in [22] and 9 nM in [23]. The molecule also yielded a clearance in data set [7] of 15.2 mL/min/kg. For the same molecule, the Vd in data set [8] was 1.94 L/kg. In addition, the half-life in data set [9] was 2.6 h. In [10], this molecule displayed a maximum concentration (Cmax) of 1270 ng/mL. Also, in data set [15], the area under the curve AUC(0-t) at 24 h was 7090 ng·h/mL. In data set [12], this molecule had an AUC(0-inf) of 7100 ng·h/mL. Moreover, the bioavailability in [13] was 64.5%. Also, the inhibition in vivo at 50 mg/kg in [24] was 78%; in [25] it was 50%.
As for `C[C@@H](Nc1nc(N[C@H](C)C(F)(F)F)nc(-c2cccc(Cl)n2)n1)C(F)(F)F` [VORASIDENIB], in data set [26], the Kp at 16 h is 1.4. Besides, in data set [27], the Kp at 24 h is 1.2.
